Laboratory results: patent US7829665B2 (priority 2005, dated 2010)

Target: T1, full-length NS3/NS4A-2 (HCV NS3 protease) (Hepatitis C virus genotype 1a, UniProt P27958)
T1 construct: Recombinant E. coli or Baculovirus full-length NS3 was diluted to 3.33 μM with assay buffer; made in house; host or cells: E. coli or baculovirus (BV) expression system
Test: NS3-NS4 protease assay / NS3 inhibition assay (RETS1 substrate, fluorescence kinetic read)
Assay type: biochemical
Conditions: Table 22; read-out: NS3-NS4 IC50
Procedure: NS3 complex formation with NS4A-2.
Recombinant E. coli or Baculovirus full-length NS3 was diluted to 3.33 μM with assay buffer and transferred material to an eppendorf tube and place in water bath in 4° C. refrigerator. The appropriate amount of NS4A-2 to 8.3 mM in assay buffer was added to equal the volume of NS3 in step 2.1.1 (conversion factor—3.8 mg/272 μL assay buffer). The material was transferred to an eppendorf tube and place in water bath in 4° C. refrigerator.
After equilibration to 4° C., equal volumes of NS3 and NS4A-2 solutions were combined in an eppendorf tube, mix gently with a manual pipettor, and incubate mixture for 15 minutes in the 4° C. water bath. Final concentrations in the mixture are 1.67 μM NS3, 4.15 mM NS4A-2 (2485-fold molar excess NS4A-2).
After 15 minutes at 4° C., the NS3/NS4A-2 eppendorf tube was removed and place it in a room temperature water bath for 10 minutes. NS3/NS4A-2 was alliquoted at appropriate volumes and store at −80° C. (E. coli NS3 run at 2 nM in assay, aliquot at 25 μL. BV NS3 run at 3 nM in assay, aliquot at 30 μL).
Sample compounds were dissolved to 10 mM in DMSO then diluted to 2.5 mM (1:4) in DMSO. Typically, compounds were added to an assay plate at 2.5 mM concentration, yielding upon dilution a starting concentration of 50 microM in the assay inhibition curve. Compounds were serial diluted in assay buffer to provide test solutions at lower concentrations.
The E. coli. NS3/NS4A-2 was diluted to 4 nM NS3 (1:417.5 of 1.67 μM stock−18 μL 1.67 μM stock+7497 μL assay buffer). The BV NS3/NS4A-2 was diluted to 6 nM NS3 (1:278.3 of 1.67 μM stock−24 μL 1.67 μM stock+6655 μL assay buffer). Using the manual multichannel pipettor, careful not to introduce bubbles into the plate, add 50 μL assay buffer to wells A01-H01 of a black Costar 96-well polypropylene storage plate.
Using the manual multichannel pipettor, careful not to introduce bubbles into the plate, add 50 μL of diluted NS3/NS4A-2 from step 2.2.6 to wells A02-H12 of plate in step 2.2.7. Using the manual multichannel pipettor, careful not to introduce bubbles into the plate, transfer 25 μL of the wells in drug dilution plate in step 2.2.5 to corresponding wells in assay plate in step 2.2.8. Change tips on multichannel pipettor for each row of compounds transferred. Using the manual multichannel pipettor, careful not to introduce bubbles into the plate, mix the wells from the assay plate in step 2.2.9 by aspirating and dispensing 35 μL of the 75 μL in each well five times. Change tips on multichannel pipettor for each row of wells mixed. Cover plate with a polystyrene plate lid and pre-incubate the plate from step 2.2.10 containing NS3 protease and sample compounds 10 minutes at room temperature. While plate from step 2.2.11 is pre-incubating, dilute RETS1 substrate in a 15 mL polypropylene centrifuge tube. Dilute RETS1 substrate to 8 μM (1:80.75 of 646 μM stock−65 μL 646 μM stock+5184 μL assay buffer).
After the plate in step is done pre-incubating, and using the manual multichannel, add 25 μL of substrate to all wells on the plate. Quickly mix the plate as in step 2.2.10, mixing 65 μL of the 100 μL in the wells.
Read the plate in kinetic mode on the Molecular Devices SpectraMax Gemini XS plate reader. Reader settings: Read time: 30 minutes, Interval: 36 seconds, Reads: 51, Excitation λ: 335 nm, Emission λ: 495 nm, cutoff: 475 nm, Automix: off, Calibrate: once, PMT: high, Reads/well: 6, Vmax pts: 21 or 28/51 depending on length of linearity of reaction
IC50 s are determined using a four parameter curve fit equation, and converted to Ki's using the following Km's: • Full-length E. coli NS3—2.03 μM • Full-length BV NS3—1.74 μM where Ki=IC50/(1+[S]/Km)) • Quantitation by ELISA of the selectable marker protein, Neomycin phosphotransferase II (NPTII) in the HCV Sub-Genomic Replicon, GS4.3

T1 sequence (P27958 1027-1657): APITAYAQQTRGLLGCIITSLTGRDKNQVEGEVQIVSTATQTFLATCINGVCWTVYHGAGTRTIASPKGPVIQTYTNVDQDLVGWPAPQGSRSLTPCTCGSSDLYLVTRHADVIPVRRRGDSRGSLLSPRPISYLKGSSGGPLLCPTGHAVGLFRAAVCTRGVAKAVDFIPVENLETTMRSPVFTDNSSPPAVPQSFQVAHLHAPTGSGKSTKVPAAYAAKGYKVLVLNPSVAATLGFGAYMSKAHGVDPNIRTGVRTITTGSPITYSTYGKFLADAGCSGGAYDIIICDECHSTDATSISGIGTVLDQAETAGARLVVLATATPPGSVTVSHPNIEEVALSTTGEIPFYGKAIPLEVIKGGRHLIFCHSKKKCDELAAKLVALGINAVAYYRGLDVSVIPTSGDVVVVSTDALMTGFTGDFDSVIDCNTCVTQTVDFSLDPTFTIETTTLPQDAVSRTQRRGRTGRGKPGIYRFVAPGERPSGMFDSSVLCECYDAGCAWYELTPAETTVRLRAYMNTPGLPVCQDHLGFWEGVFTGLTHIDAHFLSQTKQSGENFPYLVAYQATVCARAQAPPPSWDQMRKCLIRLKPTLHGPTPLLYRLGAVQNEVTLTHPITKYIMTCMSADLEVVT

| Structure (SMILES) | IC50 [µM] |
| --- | --- |
| CCCNC(=O)[C@@]12C[C@H]1/C=C\CCCCC[C@H](NC(=O)OC(C)(C)C)C(=O)N1CCC[C@H]1C(=O)N2 [Compound 2319] | < 0.1 |
| CC(C)(C)OC(=O)N[C@H]1CCCCC/C=C\[C@@H]2C[C@@]2(C(=O)NCCc2ccccc2)NC(=O)[C@@H]2CCCN2C1=O [Compound 2320] | < 0.1 |
| COC(=O)c1cccc(CNC(=O)[C@@]23C[C@H]2/C=C\CCCCC[C@H](NC(=O)OC(C)(C)C)C(=O)N2CCC[C@H]2C(=O)N3)c1 [Compound 2321] | < 1 |
| CC(C)(C)OC(=O)N[C@H]1CCCCC/C=C\[C@@H]2C[C@@]2(C(=O)Nc2cccc(Cl)c2)NC(=O)[C@@H]2CCCN2C1=O [Compound 2317] | < 1 |

Same assay, conditions: Table 25; read-out: NS3-NS4 IC50

| Structure (SMILES) | IC50 [µM] |
| --- | --- |
| CC(C)(C)OC(=O)N[C@H]1CCCCC/C=C\[C@@H]2C[C@@]2(C(=O)N[S@@+]([O-])C(C)(C)C)NC(=O)[C@@H]2C[C@@H](OC(=O)N3Cc4ccccc4C3)CN2C1=O [Compound 2601, (1S,4R,6S,14S,18R)-1,3-Dihydro-isoindole-2-carbonyloxylic acid 14-tert-butoxycarbonylamino-4-((S)-2-methylpropane-2-sulfinyl)aminocarbonyl-2,15-dioxo-3,16-diaza-tricyclo[14.3.0.0^4,6]nonadec-7-ene-18-yl ester] | > 10 |

Same assay, conditions: recombinant E. coli or Baculovirus full-length NS3 with NS4A-2; read-out: NS3-NS4 IC50

| Structure (SMILES) | IC50 [µM] |
| --- | --- |
| CC(C)(C)OC(=O)N[C@H]1CCCCC/C=C\[C@@H]2C[C@@]2(C(=O)NS(=O)(=O)c2cccc3c(Cl)cccc23)NC(=O)[C@@H]2CCCN2C1=O [Compound 309] | < 10 |
| CN1CCN(S(=O)(=O)NC(=O)[C@@]23C[C@H]2/C=C\CCCCC[C@H](NC(=O)OC(C)(C)C)C(=O)N2CCC[C@H]2C(=O)N3)CC1 [Compound 2208] | < 1 |
| CC(C)C[C@@H]1C[C@H]2C(=O)N[C@]3(C(=O)NS(=O)(=O)C4CC4)C[C@H]3/C=C\CCCCC[C@H](NC(=O)OC(C)(C)C)C(=O)N2C1 [Compound 2147, (1S,4R,6S,14S,18R)-tert-Butyl 4-cyclopropylsulfonylaminocarbonyl-2,15-dioxo-3,16-diaza-18-(2-methylpropyl)-tricyclo[14.3.0.0^4,6]nonadec-7-ene-14-yl carbamate] | > 10 |
| CN(c1ccc(Cl)cc1)S(=O)(=O)NC(=O)[C@@]12C[C@H]1/C=C\CCCCC[C@H](NC(=O)OC(C)(C)C)C(=O)N1CCC[C@H]1C(=O)N2 [Compound 2226] | < 10 |
| CC(C)(C)OC(=O)N[C@H]1CCCCC/C=C\[C@@H]2C[C@@]2(C(=O)NS(=O)(=O)c2ccccc2Br)NC(=O)[C@@H]2CCCN2C1=O [Compound 2111] | < 10 |
| CC(C)(C)OC(=O)N[C@H]1CCCCC/C=C\[C@@H]2C[C@@]2(C(=O)NS(=O)(=O)NCCc2cccnc2)NC(=O)[C@@H]2CCCN2C1=O [Compound 424] | > 10 |
| CCOC(=O)[C@@]12C[C@H]1/C=C\CCCCC[C@H](N)C(=O)N1C[C@H](OC(=O)N3Cc4ccc(OCCN5CCOCC5)cc4C3)C[C@H]1C(=O)N2 [Compound 126] | > 10 |
| CC[C@@H]1C[C@H]2C(=O)N[C@]3(C(=O)NS(=O)(=O)C4CC4)C[C@H]3/C=C\CCCCC[C@H](NC(=O)OC(C)(C)C)C(=O)N2C1 [Compound 2145] | > 10 |
| CN(C)CCNC(=O)[C@@]12C[C@H]1/C=C\CCCCC[C@H](NC(=O)OC(C)(C)C)C(=O)N1C[C@H](OC(=O)N3Cc4cccc(F)c4C3)C[C@H]1C(=O)N2 [Compound 608] | > 10 |
| CC(C)(C)OC(=O)N[C@H]1CCCCC/C=C\[C@@H]2C[C@@]2(C(=O)NS(=O)(=O)C2(Cc3ccccc3)CC2)NC(=O)[C@@H]2CCCN2C1=O [Compound 301] | < 10 |
| CC(C)(C)OC(=O)N[C@H]1CCCCC/C=C\[C@@H]2C[C@@]2(C(=O)NS(=O)(=O)NCCc2ccccn2)NC(=O)[C@@H]2CCCN2C1=O [Compound 423] | < 10 |
| CN(C)c1ccc(NS(=O)(=O)NC(=O)[C@@]23C[C@H]2/C=C\CCCCC[C@H](NC(=O)OC(C)(C)C)C(=O)N2CCC[C@H]2C(=O)N3)cc1 [Compound 2231] | < 10 |
| CCCNC(=O)[C@@]12C[C@H]1/C=C\CCCCC[C@H](NC1CCC1)C(=O)N1C[C@H](OC(=O)N3Cc4cccc(F)c4C3)C[C@H]1C(=O)N2 [Compound 623] | < 10 |
| CC(C)(C)OC(=O)N[C@H]1CCCCC/C=C\[C@@H]2C[C@@]2(C(=O)NCCN2CCOCC2)NC(=O)[C@@H]2C[C@@H](OC(=O)N3Cc4cccc(F)c4C3)CN2C1=O [Compound 607] | > 10 |
| CC(C)(C)OC(=O)N[C@H]1CCCCC/C=C\[C@@H]2C[C@@]2(C(=O)NS(=O)(=O)c2cccc(C#N)c2)NC(=O)[C@@H]2CCCN2C1=O [Compound 2152] | < 10 |
| O=C(N[C@H]1CCCCC/C=C\[C@@H]2C[C@@]2(C(=O)NS(=O)(=O)Nc2ccc(Cl)cc2)NC(=O)[C@@H]2CCCN2C1=O)OC1CCCC1 [Compound 420] | > 10 |
| C=CCN(C)S(=O)(=O)NC(=O)[C@@]12C[C@H]1/C=C\CCCCC[C@H](NC(=O)OC(C)(C)C)C(=O)N1CCC[C@H]1C(=O)N2 [Compound 412] | < 10 |
| CC(C)(C)OC(=O)NC1CCCCCCCC=CC2CC2(C(=O)NS(=O)(=O)c2ccccc2)NC(=O)C2CCCN2C1=O (centres unmarked) [Compound 2101] | < 10 |
| C[C@H](NC(=O)[C@@]12C[C@H]1/C=C\CCCCC[C@H](NC(=O)OC(C)(C)C)C(=O)N1CCC[C@H]1C(=O)N2)c1ccncc1 [Compound 501] | > 10 |
| CS(=O)(=O)NC(=O)[C@@]12C[C@H]1/C=C\CCCCC[C@H](NC(=O)OC1CCCC1)C(=O)N1C[C@H](OC(=O)N3CCc4ccccc4C3)C[C@H]1C(=O)N2 [Compound 119] | < 0.1 |
| O=C(N[C@H]1CCCCCCC[C@@H]2C[C@@]2(C(=O)NS(=O)(=O)c2ccccc2)NC(=O)C2Cc3cc(Oc4cccc(Cl)c4)ccc3CN2C1=O)OC1CCCC1 (stereo partly drawn) [Compound 2010, Cyclopentyl (1aR,9S,19aR)-15-(3-chlorophenoxy)-10,18-dioxo-19a-(phenylsulfonylcarbamoyl)-1a,2,3,4,5,6,7,8,9,10,12,17,17a,18,19,19a-hexadecahydro-1H-2,5-diaza-bicyclo[13.1.0]hexadec-1(15)-eno[5,4-b]isoquinolin-9-ylcarbamate] | < 10 |
| CC(C)(C)OC(=O)N[C@H]1CCCCC/C=C\[C@@H]2C[C@@]2(C(=O)NS(=O)(=O)NCc2ccncc2)NC(=O)[C@@H]2CCCN2C1=O [Compound 426] | > 10 |
| CC(C)(C)OC(=O)N[C@H]1CCCCC/C=C\[C@@H]2C[C@@]2(C(=O)NS(=O)(=O)Cc2cccc(Cl)c2)NC(=O)[C@@H]2CCCN2C1=O [Compound 2118] | < 1 |
| C=CCNS(=O)(=O)NC(=O)[C@@]12C[C@H]1/C=C\CCCCC[C@H](NC(=O)OC(C)(C)C)C(=O)N1CCC[C@H]1C(=O)N2 [Compound 2238] | < 1 |
| CC(C)(C)OC(=O)NC1CCCCCCCC=CC2CC2(C(=O)NS(=O)(=O)c2ccc([N+](=O)[O-])cc2)NC(=O)C2CCCN2C1=O (centres unmarked) [Compound 2102] | < 10 |
| CNC(=O)NC(=O)[C@@]12C[C@H]1/C=C\CCCCC[C@H](NC(=O)OC(C)(C)C)C(=O)N1C[C@H](OC(=O)N3Cc4ccccc4C3)C[C@H]1C(=O)N2 [Compound 703] | < 1 |
| CC(C)(C)OC(=O)N[C@H]1CCCCC/C=C\[C@@H]2C[C@@]2(C(=O)NS(=O)(=O)NCCc2ccc3ccccc3c2)NC(=O)[C@@H]2CCCN2C1=O [Compound 421] | > 10 |
